Experimental data: ChEMBL document CHEMBL1201862, “PubChem BioAssay data set” (2004)
Activity calls are given as the source filed them.

Key:
[1] = target: Dual specificity protein phosphatase 3 (Homo sapiens, UniProt P51452); assay: VHR phosphatase inhibition, dose response, selectivity assay for STEP inhibitor project, biochemical (AID 602374); format: functional; conditions: read-out: IC50_Mean
[2] = target: Tyrosine-protein phosphatase non-receptor type 11 (Homo sapiens, UniProt Q06124); assay: SHP2 phosphatase inhibition, dose response, selectivity assay for STEP inhibitor project, biochemical (AID 602367); format: functional; conditions: read-out: IC50_Mean
[3] = target: Tyrosine-protein phosphatase non-receptor type 5 (Homo sapiens, UniProt P54829); assay: STEP phosphatase inhibitors, confirmation, biochemical, fluorescence intensity, uHTS hits (AID 602372); format: functional; conditions: read-out: IC50_Mean
[4] = target: T1, Mitochondrial peptide methionine sulfoxide reductase (Bos taurus, UniProt P54149); assay: Absorbance-based biochemical high throughput dose response assay for activators of Methionine sulfoxide reductase A (MsrA).; format: functional
T1 sequence (P54149 whole entry): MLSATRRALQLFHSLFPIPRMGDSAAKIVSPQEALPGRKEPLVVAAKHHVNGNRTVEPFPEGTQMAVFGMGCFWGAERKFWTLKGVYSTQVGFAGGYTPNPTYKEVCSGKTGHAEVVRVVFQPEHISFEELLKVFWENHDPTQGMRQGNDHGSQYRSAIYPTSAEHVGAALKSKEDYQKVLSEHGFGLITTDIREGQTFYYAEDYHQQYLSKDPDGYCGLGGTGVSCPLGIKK

[5] = HeLa cell cytotoxicity, dose response, cytotoxicity control for MgcRacGAP inhibitor project (AID 624300); format: functional
[6] = target: T2, Tyrosyl-DNA phosphodiesterase 2 (Homo sapiens, UniProt O95551); assay: human TDP2 enzyme inhibitors, dose response, biochemical, epi absorbance, IC50 (AID 743297)
T2 sequence (O95551 whole entry): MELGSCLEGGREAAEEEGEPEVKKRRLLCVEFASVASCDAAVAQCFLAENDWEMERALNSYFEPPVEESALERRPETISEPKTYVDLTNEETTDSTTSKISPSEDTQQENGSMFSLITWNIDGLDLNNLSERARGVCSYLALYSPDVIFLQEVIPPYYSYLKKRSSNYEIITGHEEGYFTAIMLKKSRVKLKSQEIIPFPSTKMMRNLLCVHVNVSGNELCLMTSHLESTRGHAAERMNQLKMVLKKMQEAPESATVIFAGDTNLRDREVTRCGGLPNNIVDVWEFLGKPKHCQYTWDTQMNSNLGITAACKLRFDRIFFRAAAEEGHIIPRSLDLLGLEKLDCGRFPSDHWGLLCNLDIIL

[7] = target: T3, Rac GTPase-activating protein 1 (Homo sapiens, UniProt Q9H0H5); assay: MgcRacGAP GTPase-activating activity inhibitors, confirmation, biochemical, ADP Hunter fluorescence, primary and confirmatory (AID 624330); format: functional
T3 sequence (Q9H0H5 whole entry): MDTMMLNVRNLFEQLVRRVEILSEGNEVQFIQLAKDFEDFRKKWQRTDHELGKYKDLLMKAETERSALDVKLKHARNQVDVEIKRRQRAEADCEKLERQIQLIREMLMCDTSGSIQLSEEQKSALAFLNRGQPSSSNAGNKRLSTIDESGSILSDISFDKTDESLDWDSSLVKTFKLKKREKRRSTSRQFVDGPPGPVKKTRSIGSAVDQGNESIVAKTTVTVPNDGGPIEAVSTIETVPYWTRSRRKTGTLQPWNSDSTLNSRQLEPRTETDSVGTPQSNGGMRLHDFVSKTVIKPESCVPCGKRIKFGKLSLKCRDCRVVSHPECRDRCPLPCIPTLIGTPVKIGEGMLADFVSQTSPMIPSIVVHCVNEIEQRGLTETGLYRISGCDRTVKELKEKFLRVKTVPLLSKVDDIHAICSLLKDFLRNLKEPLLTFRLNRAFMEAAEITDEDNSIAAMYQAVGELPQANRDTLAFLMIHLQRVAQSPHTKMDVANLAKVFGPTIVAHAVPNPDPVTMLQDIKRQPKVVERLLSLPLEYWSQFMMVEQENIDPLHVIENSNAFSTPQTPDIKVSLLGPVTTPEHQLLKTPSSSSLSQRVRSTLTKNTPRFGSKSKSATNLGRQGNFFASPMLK

[8] = C. albicans growth with fluconazole, confirmation, fluorescence, retest (AID 2467); format: functional, cell-based
[9] = target: Phospholipase A2 (Homo sapiens, UniProt P04054); format: functional;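 further: confirmatory dose-response counterscreen on phospholipase A2, testing hits that came from an ultra-high-throughput screen for ATG4B inhibitors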
[10] = NIH-3T3 fibroblast cytotoxicity, dose response, cytotoxicity control, cell-based, fluorescence, Alamar Blue, secondary assay (AID 2327); format: functional;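 further: NIH-3T3 mouse fibroblasts cultured with fluconazole at 8 µg/mL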
[11] = target: 72 kDa type IV collagenase (Homo sapiens, UniProt P08253); assay: Dose Response validation of uHTS RPN11 inhibitor hits using a MMP-2 Fluorescence assay.; format: functional
[12] = target: Prothrombin (Bos taurus, UniProt P00735); assay: thrombin inhibition, dose response, biochemical, fluorescence polarization, uHTS hits (AID 602369); format: functional
[13] = target: T4, Cysteine protease ATG4B (Homo sapiens, UniProt Q9Y4P1); format: functional;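 further: Fluorescence-based dose-response confirmation assay measuring inhibition of ATG4B activity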
T4 sequence (Q9Y4P1 whole entry): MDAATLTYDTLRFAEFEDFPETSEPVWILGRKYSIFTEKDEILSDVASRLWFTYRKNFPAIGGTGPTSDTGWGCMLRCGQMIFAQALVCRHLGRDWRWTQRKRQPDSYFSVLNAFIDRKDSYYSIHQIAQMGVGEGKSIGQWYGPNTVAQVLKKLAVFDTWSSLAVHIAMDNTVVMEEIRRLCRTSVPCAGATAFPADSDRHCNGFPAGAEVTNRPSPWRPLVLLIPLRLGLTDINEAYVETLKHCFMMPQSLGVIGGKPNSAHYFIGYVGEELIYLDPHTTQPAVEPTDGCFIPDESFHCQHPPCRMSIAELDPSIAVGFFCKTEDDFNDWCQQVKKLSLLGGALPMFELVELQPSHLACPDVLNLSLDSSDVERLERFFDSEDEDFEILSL

[14] = target: 26S proteasome non-ATPase regulatory subunit 14 (Homo sapiens, UniProt O00487); assay: inhibition of proteasome subunit RPN11 – biochemical, fluorescence polarization, uHTS hits, confirmation (AID 602368); format: functional
[15] = target: T5, Corticotropin-releasing factor receptor 2/Corticotropin-releasing factor-binding protein (Homo sapiens, UniProt P24387+Q13324); assay: Dose Response confirmation of uHTS hits for small molecule antagonists of the CRF-binding protein and CRF-R2 receptor complex.; format: functional; conditions: read-out: IC50_Mean
T5 sequence (Q13324 whole entry): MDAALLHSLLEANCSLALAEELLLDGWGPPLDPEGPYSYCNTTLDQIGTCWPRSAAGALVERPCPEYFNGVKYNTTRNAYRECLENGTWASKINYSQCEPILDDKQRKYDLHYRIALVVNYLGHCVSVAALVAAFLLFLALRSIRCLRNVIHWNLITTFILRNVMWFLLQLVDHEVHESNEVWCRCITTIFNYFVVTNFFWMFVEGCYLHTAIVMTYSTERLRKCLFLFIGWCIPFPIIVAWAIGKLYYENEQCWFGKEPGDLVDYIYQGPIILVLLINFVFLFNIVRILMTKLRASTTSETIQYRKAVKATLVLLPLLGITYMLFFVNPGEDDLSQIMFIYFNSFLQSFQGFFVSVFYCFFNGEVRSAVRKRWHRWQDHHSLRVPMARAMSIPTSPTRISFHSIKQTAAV
T5 sequence (P24387 whole entry): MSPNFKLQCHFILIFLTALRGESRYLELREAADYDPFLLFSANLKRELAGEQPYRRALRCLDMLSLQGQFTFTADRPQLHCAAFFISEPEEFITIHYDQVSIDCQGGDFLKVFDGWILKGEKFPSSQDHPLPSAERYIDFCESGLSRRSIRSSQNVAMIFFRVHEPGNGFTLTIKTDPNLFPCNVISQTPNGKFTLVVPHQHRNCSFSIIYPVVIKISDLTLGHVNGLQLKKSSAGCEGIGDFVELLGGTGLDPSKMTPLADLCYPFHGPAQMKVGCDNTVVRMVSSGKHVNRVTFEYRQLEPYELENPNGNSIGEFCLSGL

[16] = CRF-BP/CRF-R2 complex antagonists, dose response, cell-based, uHTS hits, 384-well (AID 651639); format: functional, Homo sapiens; conditions: read-out: IC50_Mean
[17] = target: T5, Corticotropin-releasing factor receptor 2/Corticotropin-releasing factor-binding protein; assay: activators of CRF receptor 2 with binding protein – uHTS hits, confirmation (AID 602473); format: functional; conditions: read-out: EC50_Mean
[18] = inhibitors of intracellular T. cruzi replication, confirmation, NIH3T3 host cells, beta-gal luminescence (AID 2044); format: functional, cell-based;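 further: intracellular parasites grown in NIH/3T3 mouse fibroblasts as host cells; luminescent beta-galactosidase reporter signal from transgenic T. cruzi replicating inside host cells; inhibitors lower the luminescence signal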
[19] = cytotoxicity toward NIH3T3 fibroblasts, dose response, counter-screen, cell-based, ATP luminescence, mouse fibroblasts (AID 2010); format: functional;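 further: cells exposed to compound for about 90 hours before reading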
[20] = target: Photoreceptor-specific nuclear receptor (Homo sapiens, UniProt Q9Y5X4); format: functional, cell-based;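 further: CHO-S cells with Gal4-NCOR and VP16-NR2E3 two-hybrid luciferase reporter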
[21] = target: Cytochrome P450 3A4 (Homo sapiens, UniProt P08684);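 further: CYP3A4 tested as one member of a cytochrome P450 panel screen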
[22] = Shn3 3'UTR reporter inhibitors, dose response, cell-based, Clone20 osteoblasts, firefly luciferase, cherry-picked (AID 624132); format: functional;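 further: firefly luciferase luminescence from reporter carrying the Shn3 3'UTR in osteoblasts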
[23] = control 3'UTR Renilla luciferase suppression, dose response, counter-screen for Shn3 inhibitor project, cell-based, Clone20-Shn3RL, cherry-picked (AID 624133); format: functional
[24] = HepG2 cell cytotoxicity, dose response, cytotoxicity control for Shn3 inhibitor project, CellTiter-Glo, cherry-picked (AID 624134); format: functional, cell-based
[25] = system: Streptococcus sp. 'group A'; assay: growth inhibition of control SK(-) GAS strain, dose response, counter-screen for streptokinase expression inhibitor project, luminescence, kanamycin, BacTiterGlo, confirmation (AID 1900); format: functional, organism-based
[26] = target: T6, Streptokinase A (Streptococcus pyogenes serotype M1, UniProt P10520); assay: S. pyogenes streptokinase expression inhibitors, potency, dose response, plasminogen activation absorbance, OD405 (AID 1914); format: functional, Streptococcus pyogenes M1 GAS;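 further: secreted streptokinase activity via plasminogen activation per viability signal from cell pellet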
T6 sequence (P10520 whole entry): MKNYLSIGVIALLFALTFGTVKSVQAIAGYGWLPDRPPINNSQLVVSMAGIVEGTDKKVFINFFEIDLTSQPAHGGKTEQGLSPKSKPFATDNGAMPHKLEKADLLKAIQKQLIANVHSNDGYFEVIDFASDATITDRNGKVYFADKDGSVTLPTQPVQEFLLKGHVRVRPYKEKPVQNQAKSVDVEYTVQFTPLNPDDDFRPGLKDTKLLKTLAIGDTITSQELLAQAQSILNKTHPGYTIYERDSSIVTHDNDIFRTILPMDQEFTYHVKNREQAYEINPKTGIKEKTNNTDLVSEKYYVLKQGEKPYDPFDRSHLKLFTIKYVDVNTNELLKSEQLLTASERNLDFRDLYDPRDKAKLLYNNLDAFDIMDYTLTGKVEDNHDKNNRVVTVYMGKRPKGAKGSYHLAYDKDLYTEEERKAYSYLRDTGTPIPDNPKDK

[27] = target: Potassium voltage-gated channel subfamily KQT member 2 (Rattus norvegicus, UniProt O88943); assay: KCNQ2 potassium channel inhibitors, dose response, cell-based, automated electrophysiology, set II, rat KCNQ2 (AID 588637); format: functional
[28] = system: Streptococcus; assay: Group A Streptococcus viability loss, dose response, counter-screen for streptokinase expression inhibitor project, luminescence, BacTiterGlo (AID 1915); format: functional, organism-based;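 further: potency for reduction of bacterial viability or growth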
[29] = target: Large T antigen (Simian virus 40, UniProt P03070); format: functional, Betapolyomavirus macacae;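 further: Confirmatory-stage PubChem screen for compounds that inhibit SV40 T antigen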
Sequence of Large T antigen (P03070 whole entry): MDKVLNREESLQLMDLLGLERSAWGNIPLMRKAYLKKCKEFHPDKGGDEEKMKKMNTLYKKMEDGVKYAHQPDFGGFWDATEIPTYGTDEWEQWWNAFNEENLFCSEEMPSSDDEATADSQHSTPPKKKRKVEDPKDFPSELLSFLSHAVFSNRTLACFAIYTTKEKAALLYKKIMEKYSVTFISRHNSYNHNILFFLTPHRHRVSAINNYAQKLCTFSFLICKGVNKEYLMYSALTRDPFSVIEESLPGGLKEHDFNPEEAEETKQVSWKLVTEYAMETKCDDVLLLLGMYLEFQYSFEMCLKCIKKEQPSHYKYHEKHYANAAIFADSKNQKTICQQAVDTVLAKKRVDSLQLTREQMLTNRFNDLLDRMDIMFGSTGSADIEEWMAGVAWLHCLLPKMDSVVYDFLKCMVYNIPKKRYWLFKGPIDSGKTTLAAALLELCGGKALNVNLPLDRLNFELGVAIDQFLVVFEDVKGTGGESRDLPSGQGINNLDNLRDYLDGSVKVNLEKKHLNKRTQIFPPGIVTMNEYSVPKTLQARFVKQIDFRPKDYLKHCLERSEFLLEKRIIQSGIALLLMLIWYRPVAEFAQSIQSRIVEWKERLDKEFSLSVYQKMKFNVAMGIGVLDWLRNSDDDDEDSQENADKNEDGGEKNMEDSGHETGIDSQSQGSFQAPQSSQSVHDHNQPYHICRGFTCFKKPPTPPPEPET

Sequence of Photoreceptor-specific nuclear receptor (Q9Y5X4 whole entry, the tested form may be a part): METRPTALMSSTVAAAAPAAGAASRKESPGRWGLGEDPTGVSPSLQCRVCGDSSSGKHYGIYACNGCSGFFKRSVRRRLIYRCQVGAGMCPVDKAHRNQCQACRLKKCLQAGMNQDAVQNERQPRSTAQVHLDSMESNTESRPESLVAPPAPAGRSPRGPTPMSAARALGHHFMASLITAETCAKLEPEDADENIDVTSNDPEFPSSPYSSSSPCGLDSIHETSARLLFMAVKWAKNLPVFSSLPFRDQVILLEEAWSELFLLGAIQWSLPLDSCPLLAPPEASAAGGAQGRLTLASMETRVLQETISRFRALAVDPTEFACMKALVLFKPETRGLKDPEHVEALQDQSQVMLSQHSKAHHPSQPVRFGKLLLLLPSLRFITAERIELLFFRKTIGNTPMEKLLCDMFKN
Sequence of 26S proteasome non-ATPase regulatory subunit 14 (O00487 whole entry): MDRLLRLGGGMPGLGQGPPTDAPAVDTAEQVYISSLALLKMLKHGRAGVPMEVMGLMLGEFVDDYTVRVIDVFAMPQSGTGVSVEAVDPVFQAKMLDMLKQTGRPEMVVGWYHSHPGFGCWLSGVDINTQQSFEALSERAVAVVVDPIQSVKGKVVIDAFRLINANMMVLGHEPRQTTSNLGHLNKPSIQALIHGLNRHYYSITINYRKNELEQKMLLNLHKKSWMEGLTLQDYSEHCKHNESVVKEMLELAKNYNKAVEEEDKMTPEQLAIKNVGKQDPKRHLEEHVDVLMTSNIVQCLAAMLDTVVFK
Sequence of Tyrosine-protein phosphatase non-receptor type 11 (Q06124 whole entry): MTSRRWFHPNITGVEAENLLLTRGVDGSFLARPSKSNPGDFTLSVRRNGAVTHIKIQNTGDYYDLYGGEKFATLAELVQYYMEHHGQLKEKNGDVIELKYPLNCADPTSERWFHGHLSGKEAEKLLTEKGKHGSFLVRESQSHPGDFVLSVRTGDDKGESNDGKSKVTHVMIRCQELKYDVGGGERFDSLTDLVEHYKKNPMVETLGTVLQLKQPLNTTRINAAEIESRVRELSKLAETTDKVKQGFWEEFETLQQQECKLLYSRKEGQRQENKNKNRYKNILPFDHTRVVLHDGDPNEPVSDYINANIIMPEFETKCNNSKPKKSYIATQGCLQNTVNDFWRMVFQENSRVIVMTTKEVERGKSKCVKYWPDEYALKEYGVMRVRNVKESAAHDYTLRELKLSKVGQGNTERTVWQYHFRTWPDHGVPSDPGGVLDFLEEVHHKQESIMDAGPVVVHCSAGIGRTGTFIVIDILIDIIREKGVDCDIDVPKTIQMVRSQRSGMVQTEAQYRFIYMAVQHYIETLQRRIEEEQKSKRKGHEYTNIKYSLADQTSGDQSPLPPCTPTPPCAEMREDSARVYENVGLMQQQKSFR
Sequence of Tyrosine-protein phosphatase non-receptor type 5 (P54829 whole entry): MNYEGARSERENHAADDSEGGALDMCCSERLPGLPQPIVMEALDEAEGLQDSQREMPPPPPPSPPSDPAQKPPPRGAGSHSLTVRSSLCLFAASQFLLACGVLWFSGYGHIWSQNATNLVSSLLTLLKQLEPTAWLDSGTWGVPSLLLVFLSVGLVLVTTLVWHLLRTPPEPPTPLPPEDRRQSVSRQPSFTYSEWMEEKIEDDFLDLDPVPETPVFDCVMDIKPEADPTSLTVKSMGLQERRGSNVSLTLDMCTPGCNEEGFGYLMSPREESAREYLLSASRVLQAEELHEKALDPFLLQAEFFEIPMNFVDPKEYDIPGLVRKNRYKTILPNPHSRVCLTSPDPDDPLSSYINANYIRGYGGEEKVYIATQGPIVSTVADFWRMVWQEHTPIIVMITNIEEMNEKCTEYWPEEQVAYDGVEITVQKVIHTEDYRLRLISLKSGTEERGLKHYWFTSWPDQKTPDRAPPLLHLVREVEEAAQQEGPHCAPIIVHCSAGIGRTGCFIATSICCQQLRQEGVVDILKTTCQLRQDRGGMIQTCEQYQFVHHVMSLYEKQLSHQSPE
Sequence of Potassium voltage-gated channel subfamily KQT member 2 (O88943 whole entry): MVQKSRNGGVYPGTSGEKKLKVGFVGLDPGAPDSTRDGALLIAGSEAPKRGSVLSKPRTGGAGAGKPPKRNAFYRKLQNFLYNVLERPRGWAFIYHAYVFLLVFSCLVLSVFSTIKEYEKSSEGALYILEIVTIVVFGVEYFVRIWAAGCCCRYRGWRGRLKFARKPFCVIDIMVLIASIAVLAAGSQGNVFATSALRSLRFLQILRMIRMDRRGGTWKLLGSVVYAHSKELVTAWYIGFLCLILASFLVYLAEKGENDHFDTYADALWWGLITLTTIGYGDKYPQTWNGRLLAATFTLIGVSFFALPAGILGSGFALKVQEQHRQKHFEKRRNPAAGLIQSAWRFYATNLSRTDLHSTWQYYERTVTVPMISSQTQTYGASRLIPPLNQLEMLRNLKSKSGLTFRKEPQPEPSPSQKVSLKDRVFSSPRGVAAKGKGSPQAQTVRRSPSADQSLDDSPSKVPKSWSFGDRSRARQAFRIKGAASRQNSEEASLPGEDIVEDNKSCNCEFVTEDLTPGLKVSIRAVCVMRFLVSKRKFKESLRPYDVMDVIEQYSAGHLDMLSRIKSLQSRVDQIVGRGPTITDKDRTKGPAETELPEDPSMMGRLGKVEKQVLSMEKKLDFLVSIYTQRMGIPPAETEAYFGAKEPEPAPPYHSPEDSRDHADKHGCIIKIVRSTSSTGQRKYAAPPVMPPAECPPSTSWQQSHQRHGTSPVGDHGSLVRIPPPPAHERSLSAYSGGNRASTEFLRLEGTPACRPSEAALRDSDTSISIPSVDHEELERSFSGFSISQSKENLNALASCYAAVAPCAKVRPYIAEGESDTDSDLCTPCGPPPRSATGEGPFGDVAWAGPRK
Sequence of Dual specificity protein phosphatase 3 (P51452 whole entry): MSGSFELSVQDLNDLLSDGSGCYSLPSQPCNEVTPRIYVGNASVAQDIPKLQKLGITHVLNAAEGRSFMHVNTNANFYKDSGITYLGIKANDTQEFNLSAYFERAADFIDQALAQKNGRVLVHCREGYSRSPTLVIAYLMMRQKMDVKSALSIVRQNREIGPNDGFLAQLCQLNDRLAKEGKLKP
Sequence of 72 kDa type IV collagenase (P08253 whole entry): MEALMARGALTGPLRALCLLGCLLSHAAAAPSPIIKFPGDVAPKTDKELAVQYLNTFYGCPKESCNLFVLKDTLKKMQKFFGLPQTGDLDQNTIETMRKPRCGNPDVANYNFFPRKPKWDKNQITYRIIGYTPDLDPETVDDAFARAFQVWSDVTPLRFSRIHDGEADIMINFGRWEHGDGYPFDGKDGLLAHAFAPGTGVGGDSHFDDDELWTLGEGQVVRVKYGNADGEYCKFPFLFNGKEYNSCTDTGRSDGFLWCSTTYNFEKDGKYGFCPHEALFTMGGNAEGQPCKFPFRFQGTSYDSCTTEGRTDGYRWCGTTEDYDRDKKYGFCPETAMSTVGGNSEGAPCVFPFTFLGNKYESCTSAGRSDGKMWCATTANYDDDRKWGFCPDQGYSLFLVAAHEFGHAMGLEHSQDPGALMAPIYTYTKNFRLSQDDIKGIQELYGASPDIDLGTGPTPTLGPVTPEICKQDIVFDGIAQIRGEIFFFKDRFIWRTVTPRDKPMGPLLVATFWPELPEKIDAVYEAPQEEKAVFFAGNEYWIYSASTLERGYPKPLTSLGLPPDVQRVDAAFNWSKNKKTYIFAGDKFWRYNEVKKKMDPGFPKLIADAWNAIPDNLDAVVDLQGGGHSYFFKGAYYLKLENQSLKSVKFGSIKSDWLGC
Sequence of Cytochrome P450 3A4 (P08684 whole entry): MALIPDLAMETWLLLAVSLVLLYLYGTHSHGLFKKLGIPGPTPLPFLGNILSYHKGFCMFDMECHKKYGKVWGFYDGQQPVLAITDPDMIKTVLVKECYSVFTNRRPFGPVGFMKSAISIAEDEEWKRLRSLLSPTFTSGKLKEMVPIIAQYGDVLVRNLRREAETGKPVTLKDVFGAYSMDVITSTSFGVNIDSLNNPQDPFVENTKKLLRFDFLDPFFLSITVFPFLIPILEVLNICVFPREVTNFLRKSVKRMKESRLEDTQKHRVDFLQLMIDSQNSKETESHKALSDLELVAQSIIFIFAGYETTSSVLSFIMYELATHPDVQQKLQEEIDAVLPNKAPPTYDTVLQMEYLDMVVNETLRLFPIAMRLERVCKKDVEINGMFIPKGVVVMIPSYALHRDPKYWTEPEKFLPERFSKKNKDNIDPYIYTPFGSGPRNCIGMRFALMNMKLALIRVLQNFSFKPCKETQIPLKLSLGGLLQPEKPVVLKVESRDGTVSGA
Sequence of Phospholipase A2 (P04054 whole entry): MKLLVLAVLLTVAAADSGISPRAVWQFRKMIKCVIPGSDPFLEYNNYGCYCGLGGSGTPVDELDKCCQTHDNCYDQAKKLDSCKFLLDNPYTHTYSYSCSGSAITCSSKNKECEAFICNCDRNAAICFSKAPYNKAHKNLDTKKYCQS

COc1cc(NC(=S)N2CCN(C)CC2)c(OC)cc1Cl
IC50 [1]: 4 µM (active) | IC50 [2]: 7.71 µM (active) | IC50 [3]: > 80 µM (inactive)

COc1cc(C=c2c3ccccc3n3c2cc(-c2ccccc2)[n+]3C)cc(OC)c1OC
EC50 [4]: > 104 µM (inactive) | CC50 [5]: 100 µM (active) | IC50 [6]: > 128 µM (inactive) | IC50 [7]: 323 µM (active)

COc1cc(OC)cc(-c2nnc(Nc3nc4c(F)cccc4s3)o2)c1
EC50 [8]: > 38 µM (not active) | IC50 [9]: > 80 µM (inactive) | EC50 [10]: > 150 µM (inconclusive) | IC50 [11]: > 100 µM (inactive) | IC50 [12]: 62.8 µM (active) | IC50 [13]: 5.68 µM (active) | IC50 [14]: 30.1 µM (active)

Cn1nc([N+](=O)[O-])nc1Oc1ccc(C(C)(C)C)cc1
IC50 [15]: 12.7 µM (active) | IC50 [16]: 9.25 µM (active) | EC50 [17]: > 53 µM (inactive) | EC50 [18]: 0.201 µM (active) | EC50 [19]: > 60 µM (inconclusive)

O=C(CSc1nnnn1-c1ccc2c(c1)OCCO2)Nc1nc2c(s1)CCCC2
IC50 [20]: 1.6 µM (active)

CCN1CCN(C(=S)c2ccc(Br)cc2)CC1
IC50 [1]: 0.942 µM (active) | AC50 [21]: 17.8 µM (inconclusive) | IC50 [2]: 1.88 µM (active) | IC50 [3]: 39.4 µM (inactive)

C=C1C(=O)OC2CC(C)C3C=CC(=O)C3(C)C(O)C12 (stereo not given)
IC50 [20]: 2.74 µM (active) | AC50 [22]: < 0.26 µM (active) | AC50 [23]: 2.68 µM (active) | AC50 [24]: 5.16 µM (active)

C/C(=N\Nc1nc(N2CCCCCC2)nc(N2CCCCCC2)n1)c1ccccc1
EC50 [25]: 7.16 µM (active) | EC50 [26]: 5.5 µM (active) | IC50 [27]: 1.62 µM (active) | EC50 [28]: 9.52 µM (active)

COc1ccc(CCN(C)C(=O)c2cc(-c3ccc(C)cc3)nc3ccccc23)cc1OC
IC50 [27]: 0.59 µM (active)

O=C(Nc1cc(Cl)cc(Cl)c1)c1coc(=O)c(Br)c1
IC50 [15]: 8.37 µM (active) | IC50 [16]: > 20 µM (inactive) | EC50 [17]: 15.1 µM (active)

CCOc1cc(/C=C2\NC(=S)N(c3c(C)n(C)n(-c4ccccc4)c3=O)C2=O)ccc1O
IC50 [29]: 5.37 µM (active) | IC50 [11]: 9.31 µM (active) | IC50 [12]: 39.7 µM (active) | IC50 [14]: 27.9 µM (active)
